Source: patent publication US7618956B2, “Reduction of hair growth” (The Gillette Company, priority 2005, dated 2009)

Assays:
[1] = tested on: Human hair follicles in growth phase (anagen); experiment: Human hair follicle growth assay; format: cell-based; details: for Hair follicle length increase (mm) Treated: day 0 to day 7; for % Reduction of human hair follicle growth / Growth of follicle (mm) Treated: Table III
Procedure: Human Hair Follicle Growth Assay:
Human hair follicles in growth phase (anagen) were isolated from face-lift tissue (obtained from plastic surgeons) under dissecting scope using a scalpel and watchmakers forceps. The skin was sliced into thin strips exposing 2-3 rows of follicles that could readily be dissected. Follicles were placed into 0.5 ml William's E medium (Life Technologies, Gaithersburg, Md.) supplemented with 2 mM L-glutamine, 10 μg/ml insulin, 10 ng/ml hydrocortisone, 100 units of penicillin, 0.1 mg/ml streptomycin and 0.25 μg/ml amphotericin B. The follicles were incubated in 24-well plates (1 follicle/well) at 37° C. in an atmosphere of 5% CO2 and 95% air. Compounds are dissolved into dimethyl sulfoxide as 100-fold stock solution. The control hair follicles were treated with dimethyl sulfoxide without prostaglandin. The follicles were photographed in the 24-well plates under the dissecting scope at a power of 10×. Typically, image recordings were made on day 0 (day follicles were placed in culture), and again on day 7. The length of hair follicle was assessed using an image analysis software system. The growth of hair fiber was calculated by the subtracting the follicle length on day 0 from that determined on day 7.

hamster hair mass = experiment: Hamster hair mass assay; format: in vivo; details: vehicle 90% ethanol and 10% propylene glycol
Procedure: Hamster Hair Mass Assay: Hamster hair mass was determined using a method similar to that described in previous patent (US2004/0198821).

[2] = Homo sapiens, Table II, dose 100 μM, vs control

Row | SMILES | inhibition at 100 µM [1, 2] | Hair follicle length increase (mm) Treated ([1]; Table II, dose 100 μM) | % Reduction of human hair follicle growth ([1]; dose 10 μM) | Growth of follicle (mm) Treated ([1]; dose 10 μM) | % Reduction of human hair follicle growth ([1]; dose 50 μM) | Growth of follicle (mm) Treated ([1]; dose 50 μM) | % Reduction of human hair follicle growth ([1]; dose 100 μM) | Growth of follicle (mm) Treated ([1]; dose 100 μM) | % Inhibition of hamster hair mass (hamster hair mass; dose 5% (w/v)) | Hair mass (mg) Treated (hamster hair mass; dose 5% (w/v)) | further results
1 | C[C@H](CCC(=O)O)[C@H]1CC[C@H]2[C@@H]3CC[C@@H]4C[C@H](O)CC[C@]4(C)[C@H]3C[C@H](O)[C@]12C [Deoxycholic acid] | 94.3 ± 4.7% | 0.06 ± 0.05 mm | 31.8 ± 18.1% | 1.20 ± 0.49 mm | 69.3 ± 13.6% | 0.54 ± 0.34 mm | 69.3 ± 13.6% | 0.54 ± 0.34 mm | 63.6 ± 6.0% | 0.92 ± 0.14 mg | 
2 | COC(=O)C=C(C)CCC=C(C)CCC1OC1(C)C (centres unmarked) [Juvenile hormone III, 7-Methyl-9-(3,3-dimethyloxivanyl)-3-methyl-2,6-nonadienoic acid methyl ester] |  | 0.21 ± 0.15 mm |  |  |  |  |  |  |  |  | % Inhibition of human hair follicle growth ([1]; Table II, dose 100 μM, vs control): 75.9 ± 17.2%
3 | CC(C)=CCCC(C)=CCCC(C)=CCO [Farnesol] | 95.4 ± 8% | 0.04 ± 0.07 mm |  |  |  |  |  |  |  |  | 
4 | C[C@H](CCC(=O)O)[C@H]1CC[C@H]2[C@@H]3[C@@H](O)C[C@@H]4C[C@H](O)CC[C@]4(C)[C@H]3CC[C@]12C [Ursodeoxycholic acid] |  |  |  |  | 36.3 ± 13.6% | 1.12 ± 0.24 mm | 51.1 ± 11.4% | 0.86 ± 0.20 mm | 56.8 ± 3.8% | 1.02 ± 0.16 mg | inhibition at 200 µM ([1]; Homo sapiens, Table II, dose 200 μM, vs control): 81.3 ± 10.3%; Hair follicle length increase (mm) Treated ([1]; Table II, dose 200 μM): 0.20 ± 0.11 mm; % Reduction of human hair follicle growth ([1]; dose 150 μM): 65.3 ± 11.4%; Growth of follicle (mm) Treated ([1]; dose 150 μM): 0.61 ± 0.20 mm
5 | C[C@H](CCC(=O)O)[C@H]1CC[C@H]2[C@@H]3CC[C@@H]4C[C@H](O)CC[C@]4(C)[C@H]3CC[C@]12C [Lithocholic acid] |  |  | 64.5 ± 12.9% | 0.44 ± 0.16 mm |  |  |  |  |  |  | inhibition at 50 µM ([1]; Homo sapiens, Table II, dose 50 μM, vs control): 98.1 ± 1.9%; Hair follicle length increase (mm) Treated ([1]; Table II, dose 50 μM): 0.02 ± 0.02 mm; % Reduction of human hair follicle growth ([1]; dose 2 μM): 33.9 ± 11.3%; Growth of follicle (mm) Treated ([1]; dose 2 μM): 0.82 ± 0.14 mm; % Reduction of human hair follicle growth ([1]; dose 20 μM): 97.6 ± 4.8%; Growth of follicle (mm) Treated ([1]; dose 20 μM): 0.03 ± 0.06 mm; % Inhibition of hamster hair mass (hamster hair mass; dose 4% (w/v)): 46.4 ± 6.0%; Hair mass (mg) Treated (hamster hair mass; dose 4% (w/v)): 1.01 ± 0.12 mg
6 | C[C@H](CCC(=O)O)[C@H]1CC[C@H]2[C@@H]3[C@H](O)C[C@@H]4C[C@H](O)CC[C@]4(C)[C@H]3CC[C@]12C [Chenodeoxycholic acid] | 95.3 ± 5.6% | 0.05 ± 0.06 mm |  |  | 91.6 ± 6.5% | 0.13 ± 0.10 mm |  |  | 76.4 ± 2.6% | 0.54 ± 0.08 mg | % Reduction of human hair follicle growth ([1]; dose 5 μM): 1.3 ± 18.7%; Growth of follicle (mm) Treated ([1]; dose 5 μM): 1.53 ± 0.29 mm; % Reduction of human hair follicle growth ([1]; dose 25 μM): 49.0 ± 17.4%; Growth of follicle (mm) Treated ([1]; dose 25 μM): 0.79 ± 0.27 mm
